Measured values published in PMC4977052, “On the Utility of ToxCast™ and ToxPi as Methods for Identifying New Obesogens” (Environmental Health Perspectives, 2016).
Where two headings read alike, the source gives them in different places.

Assays:
COS7 cells = assay: Cytotoxicity in transfected COS7 cells measured as decreased β-galactosidase activity
Description: pCMX-Gal4, pCMX-Gal4-mPPARγ, and pCMX-Gal4-hRXRα were previously described ([Grün et al. 2006]). Transient transfections were performed in COS7 cells as described ([Chamorro-García et al. 2012]). Briefly, COS7 cells were seeded at 15,000 cells per well in 96-well tissue culture plates in 10% calf bovine serum. The following day, cells were transfected in Opti-MEM at ~ 90% confluency. One microgram of CMX-GAL4 effector plasmid was co-transfected with 5 μg tk-(MH100)4-luciferase reporter and 5 μg of CMX-β-galactosidase transfection control plasmids in Opti-MEM® using Lipofectamine® 2000 reagent (Invitrogen™ Life Technologies, Carlsbad, CA, USA), following the manufacturer’s recommended protocol. All chemicals were solvated in dimethyl sulfoxide (DMSO). After overnight incubation, the medium was replaced with Dulbecco’s Modified Eagle Medium (DMEM; HyClone, Logan, UT, USA), 10% resin charcoal stripped fetal bovine serum (FBS) plus ligands at concentrations indicated in the figure legends for an additional 24 hr. DMSO concentration was maintained at 0.05% across all chemical treatments. Cells were lysed and assayed for luciferase and β-galactosidase activity as previously described ([Forman et al. 1995]). All transfections were performed in triplicate and reproduced in multiple experiments. Data are reported as fold induction or reduction over vehicle ([…]) controls ± SEM (standard error of the mean) using standard propagation of error ([Bevington and Robinson 2003]). […] The EC50, EC10, IC50, and IC10 values from NCGC and ToxCast™ are reported from gain AC50 and AC10 values in the ToxCast™ 2014 release ([Filer et al. 2014]).
Figure 1 ToxCast™ Chemical Activity on PPARγ. The ability of a graded dose series of ToxCast™ chemicals to (A) activate or (B) antagonize GAL4-mPPARγ was tested in transiently transfected COS7 cells. (A, B) Data points are averages of triplicate transfections (three biological replicates). […] Data are depicted as (A) fold induction or (B) reduction over vehicle (0.05% DMSO) controls ± SEM. (A) ToxCast™ chemicals were tested in 3-fold serial dilutions from 100 μM through 0.137 μM, with the final data point being 0.05% DMSO. Rosiglitazone serves as a positive control activator. (B) ToxCast™ chemicals were tested in 3-fold serial dilutions from 100 μM, in competition with 50 nM rosiglitazone (Rosi). […] (C) EC50, EC10, IC50, and IC10 values calculated from A and B are reported and compared to commercial assays (see Figure S1). Note: ATG, Attagene GAL-PPARγ activation assay; NCGC, GeneBLAzer® agonist (EC values) or antagonist (IC values) assays. Triphenyltin was previously published ([Kanayama et al. 2005]).

3T3-L1 preadipocytes = assay: 3T3-L1 adipogenesis assay (lipid accumulation, adipogenic gene expression); format: cell-based; conditions: for Adipogenesis 3T3-L1 (result in words): 0.02-20 μM, 5 days after MDI induction; for Adipogenic gene expression (Fabp4, Fsp27, Lpl), QPCR: 3T3-L1, Figure 2A; for Induction of adipogenesis in 3T3-L1 preadipocytes, doses: lipid accumulation, Nile red/Hoechst, Figure 2A
In short: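 After 2-day MDI induction with biotin and pantothenate, 3T3-L1 cells were treated 5 days with chemicals at 0.02–20 μM (0.1% DMSO; 10 μM if toxic). Lipid read as Nile red/Hoechst fluorescence ratio; adipogenic genes by QPCR, 2^ΔΔCt versus 36b4, normalized to DMSO.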

PPARγ = conditions: cited from earlier work; for AC50: PPARγ, NA = not active; for PPARγ agonists: EC10, NCGC: AC10, ToxCast 2014 release; for EC50: gain AC50, ToxCast 2014 release, read-out: PPARγ agonists: EC50, NCGC
[1] = ref Filer et al. 2014, read-out: NCGC Agonist AC50, 2014 Release
[2] = ref Knudsen et al. 2011, read-out: NCGC Agonist AC50, 2011 Release

Structure (SMILES) | Concentration at which cytotoxicity (decreased β-galactosidase activity) was observed (COS7 cells; transfected COS7 cells, 24 hr) [µM] | Adipogenesis 3T3-L1 (result in words) (3T3-L1 preadipocytes) | AC50 (PPARγ; [1]) [µM] | PPARγ agonists: EC10, NCGC (PPARγ; ref Filer et al. 2014) [µM] | AC50 (PPARγ; [2]) [µM] | EC50 (PPARγ; ref Filer et al. 2014) [µM] | Adipogenic gene expression (Fabp4, Fsp27, Lpl), QPCR (3T3-L1 preadipocytes) | Induction of adipogenesis in 3T3-L1 preadipocytes, doses (3T3-L1 preadipocytes) | Concentration at which cytotoxicity (decreased β-galactosidase activity) was observed (COS7 cells; African green monkey, 24 h) [µM] | Lipid accumulation: TOXIC mark in place of bar (3T3-L1 preadipocytes) | Concentration toxic to 3T3-L1 cells (3T3-L1 preadipocytes; mouse, 5 days) [µM]
O=[N+]([O-])c1cc(C(F)(F)F)c(Cl)c([N+](=O)[O-])c1Nc1ncc(C(F)(F)F)cc1Cl [Fluazinam] | 100 | Negative | 0.07 |  |  |  |  |  |  |  | 
Fc1ccc(Oc2ccnc3cc(Cl)cc(Cl)c23)cc1 [Quinoxyfen] |  | Positive | 40.6 | 2.44 | 6.7 | 40.6 |  |  |  |  | 
CCC(C)(C)C(=O)OC1=C(c2ccc(Cl)cc2Cl)C(=O)OC12CCCCC2 [Spirodiclofen] | 100 | Positive | 1.6 | 0.17 | 2.8 | 1.64 | increases | induced adipogenesis at all doses tested |  |  | 
CCC(C)(NC(=O)c1cc(Cl)c(C)c(Cl)c1)C(=O)CCl (stereo not shown) [Zoxamide] |  | Positive |  |  |  |  | increases | induced adipogenesis at the lowest dose | ≥ 10 | TOXIC | ≥ 10
